Data from patent US20260271987A1, “AEROSOL PRECURSOR COMPOSITION COMPRISING MONOMENTHYL ESTER” (RAI STRATEGIC HOLDINGS, INC., priority 2023, published 2026).

Assay: Thermal analysis (flash pyrolysis and thermogravimetric analysis) of neat menthyl monosuccinate
Format: physicochemical
Conditions: for Compounds volatilized by FP and TGA, Area %: neat menthyl monosuccinate sample, FP in helium, Teq=340° C., 40 seconds, GC/MS, TGA 30 to 340° C. at 20 degrees per minute
Description: Flash pyrolysis (FP) and thermogravimetric analysis (TGA) were conducted on a sample of menthyl monosuccinate.
For the FP, a pyroprobe Model 5200 (CDS Analytical, CDS, Oxford, PA 19363, USA) pyrolyzer was used. Heating was performed in helium in flash mode with Teq=340° C. using approximately 0.5 mg of neat monomenthyl succinate. Heating was performed for 40 seconds. GC/MS analysis was performed with separation on a DB-1701 column. For the TG, a Discovery TA 5500 (TA Instruments, New Castle, DE, USA) was used. The temperature range was 30 to 340° C. at a ramp rate of 20 degrees per minute. Neat monomenthyl succinate (2-3 mg) and silica (about 1.5 mg, containing 5% naphthalene) was used as an internal standard.

| Compound | major decomposition product formed from menthyl monosuccinate (FP and TGA, up to 340° C.) | Compounds volatilized by FP and TGA, Area % | portion of the menthyl monosuccinate volatilized without decomposition (FP and TGA, up to 340° C.) |
| --- | --- | --- | --- |
| CC(C)[C@@H]1CC[C@@H](C)C[C@H]1O [Menthol, (1R,2S,5R)-5-Methyl-2-(propan-2-yl)cyclohexan-1-ol] | 16.5% | 16.5% | – |
| CC(C)[C@@H]1CC[C@@H](C)C[C@H]1OC(=O)CCC(=O)O [Menthyl monosuccinate] | – | 70% | 70% |
